Laboratory results published in patent US20260226071A1, “2, 4-DIANILINOPYRIMIDINE-BASED AURORA-A KINASE SELECTIVE DEGRADATION INDUCING COMPOUNDS” (UPPTHERA, INC., priority 2023, published 2026).

Legend:
Aurora kinase A (AURKA) = target: T1, Aurora kinase A (AURKA) (Homo sapiens, UniProt O14965); test: Luciferase assay for AURKA in HeLa LgBit (AURKA-HiBit KI) cell line; type: cell-based; conditions: HeLa LgBit (AURKA-HiBit KI) cells, measured after 12 hours
T1 construct: endogenous in cells; host or cells: HeLa LgBit (AURKA-HiBit KI), CRISPR/Cas9 knock-in at the endogenous AURKA locus
T1 sequence (O14965 1-403): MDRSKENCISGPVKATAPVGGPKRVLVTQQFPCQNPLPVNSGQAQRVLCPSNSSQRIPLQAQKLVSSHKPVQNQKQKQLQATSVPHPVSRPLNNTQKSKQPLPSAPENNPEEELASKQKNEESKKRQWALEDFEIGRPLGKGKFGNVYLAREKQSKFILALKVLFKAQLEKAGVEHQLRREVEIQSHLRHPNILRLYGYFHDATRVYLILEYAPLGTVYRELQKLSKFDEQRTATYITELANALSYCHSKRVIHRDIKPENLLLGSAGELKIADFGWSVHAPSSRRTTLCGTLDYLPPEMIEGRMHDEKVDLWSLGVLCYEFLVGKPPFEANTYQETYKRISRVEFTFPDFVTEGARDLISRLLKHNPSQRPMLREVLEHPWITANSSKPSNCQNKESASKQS
Procedure, shortened: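 HeLa cells stably expressing LgBit, with HiBit knocked in at the C-terminus of endogenous AURKA; 3×10^4 cells seeded, 18 h, then Endurazine substrate 2 h. Compounds tested at 10 nM or 100 nM; luminescence read at 470-480 nm after 12 h as real-time read-out.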

NCI-H446 cell line = test: Cell viability assay for NCI-H446 cell line; type: cell-based; conditions: Homo sapiens, NCI-H446, 120 h; H446 cells, 5 days culture, EZ-Cytox; read-out: IC50 value (Level)
Procedure, shortened: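 H446 cells seeded 24 h before treatment with compound in 3-fold dilutions, 1000 to 0.15 nM, then cultured 5 days at 37 °C, 5% CO2 in RPMI 1640/10% FBS. Viability read with EZ-Cytox (4 h) as absorbance at 450 nm.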

SMILES | luminescence value (Level) (Aurora kinase A (AURKA); 10 nM compound) | luminescence value (Level) (Aurora kinase A (AURKA); 100 nM compound) | IC50 (NCI-H446 cell line) [µM]
O=C1CCC(c2ccc(N3CCN(CCC4CCN(NC(=O)c5ccc(Nc6ncc(F)c(Nc7ccc(C(=O)Nc8ccccc8Cl)cc7)n6)cc5)CC4)CC3)cn2)C(=O)N1 (stereo not drawn) [Compound 88, N-(2-chlorophenyl)-4-((2-((4-((4-(2-(4-(6-(2,6-dioxopiperidin-3-yl)pyridin-3-yl)piperazin-1-yl)ethyl)piperidin-1-yl)carbamoyl)phenyl)amino)-5-fluoropyrimidin-4-yl)amino)benzamide] | A (A is <0.3) | A (A is <0.2) | < 0.05
C[C@@H]1CN(CCC2CCN(NC(=O)c3ccc(Nc4ncc(F)c(Nc5ccc(C(=O)Nc6ccccc6Cl)cc5)n4)cc3)CC2)CCN1c1ccc(C2CCC(=O)NC2=O)cc1 (stereo partly drawn) [Compound 116, N-(2-chlorophenyl)-4-((2-((4-((4-(2-((3R)-4-(4-(2,6-dioxopiperidin-3-yl)phenyl)-3-methylpiperazin-1-yl)ethyl)piperidin-1-yl)carbamoyl)phenyl)amino)-5-fluoropyrimidin-4-yl)amino)benzamide] | A (A is <0.3) | A (A is <0.2) | < 0.05
O=C1CCC(c2ccc(N3CCN(CCC4CCN(NC(=O)c5ccc(Nc6ncc(F)c(Nc7ccc(NC(=O)c8ccccc8F)cc7)n6)cc5)CC4)CC3)cc2)C(=O)N1 (stereo not drawn) [Compound 104, N-[4-[[2-[4-[[4-[2-[4-[4-(2,6-dioxo-3-piperidyl)phenyl]piperazin-1-yl]ethyl]-1-piperidyl]carbamoyl]anilino]-5-fluoro-pyrimidin-4-yl]amino]phenyl]-2-fluoro-benzamide] | A (A is <0.3) | A (A is <0.2) | < 0.05
O=C1CCC(c2ccc(N3CCN(CCC4CCN(C(=O)Nc5ccc(Nc6ncc(F)c(Nc7ccc(C(=O)Nc8ccccc8Cl)cc7)n6)cc5)CC4)CC3)cc2)C(=O)N1 (stereo not drawn) [Compound 53, N-(4-((4-((4-((2-chlorophenyl)carbamoyl)phenyl)amino)-5-fluoropyrimidin-2-yl)amino)phenyl)-4-(2-(4-(4-(2,6-dioxopiperidin-3-yl)phenyl)piperazin-1-yl)ethyl)piperidine-1-carboxamide] | B (B is 0.3 to 0.5) | A (A is <0.2) | < 0.05
O=C1CCC(c2ccc(N3CCN(CCC4CCN(NC(=O)c5ccc(Nc6ncc(F)c(Nc7ccccc7Cl)n6)cc5)CC4)CC3)cc2)C(=O)N1 (stereo not drawn) [Compound 57, 4-((4-((2-chlorophenyl)amino)-5-fluoropyrimidin-2-yl)amino)-N-(4-(2-(4-(4-(2,6-dioxopiperidin-3-yl)phenyl)piperazin-1-yl)ethyl)piperidin-1-yl)benzamide] | A (A is <0.3) | A (A is <0.2) | 0.1 to 0.15
